Laboratory results as given in ChEMBL document CHEMBL2074534, “In vitro P-glycoprotein affinity for atypical and conventional antipsychotics” (Life Sci, 2002).

What follows are compounds tested against MDR1 (P-glycoprotein, ABCB1) (Homo sapiens, UniProt P08183) (assay: TP_TRANSPORTER: ATP hydrolysis in membranes from MDR1-expressing insect cells).
MDR1 (P-glycoprotein, ABCB1), sequence (P08183 whole entry): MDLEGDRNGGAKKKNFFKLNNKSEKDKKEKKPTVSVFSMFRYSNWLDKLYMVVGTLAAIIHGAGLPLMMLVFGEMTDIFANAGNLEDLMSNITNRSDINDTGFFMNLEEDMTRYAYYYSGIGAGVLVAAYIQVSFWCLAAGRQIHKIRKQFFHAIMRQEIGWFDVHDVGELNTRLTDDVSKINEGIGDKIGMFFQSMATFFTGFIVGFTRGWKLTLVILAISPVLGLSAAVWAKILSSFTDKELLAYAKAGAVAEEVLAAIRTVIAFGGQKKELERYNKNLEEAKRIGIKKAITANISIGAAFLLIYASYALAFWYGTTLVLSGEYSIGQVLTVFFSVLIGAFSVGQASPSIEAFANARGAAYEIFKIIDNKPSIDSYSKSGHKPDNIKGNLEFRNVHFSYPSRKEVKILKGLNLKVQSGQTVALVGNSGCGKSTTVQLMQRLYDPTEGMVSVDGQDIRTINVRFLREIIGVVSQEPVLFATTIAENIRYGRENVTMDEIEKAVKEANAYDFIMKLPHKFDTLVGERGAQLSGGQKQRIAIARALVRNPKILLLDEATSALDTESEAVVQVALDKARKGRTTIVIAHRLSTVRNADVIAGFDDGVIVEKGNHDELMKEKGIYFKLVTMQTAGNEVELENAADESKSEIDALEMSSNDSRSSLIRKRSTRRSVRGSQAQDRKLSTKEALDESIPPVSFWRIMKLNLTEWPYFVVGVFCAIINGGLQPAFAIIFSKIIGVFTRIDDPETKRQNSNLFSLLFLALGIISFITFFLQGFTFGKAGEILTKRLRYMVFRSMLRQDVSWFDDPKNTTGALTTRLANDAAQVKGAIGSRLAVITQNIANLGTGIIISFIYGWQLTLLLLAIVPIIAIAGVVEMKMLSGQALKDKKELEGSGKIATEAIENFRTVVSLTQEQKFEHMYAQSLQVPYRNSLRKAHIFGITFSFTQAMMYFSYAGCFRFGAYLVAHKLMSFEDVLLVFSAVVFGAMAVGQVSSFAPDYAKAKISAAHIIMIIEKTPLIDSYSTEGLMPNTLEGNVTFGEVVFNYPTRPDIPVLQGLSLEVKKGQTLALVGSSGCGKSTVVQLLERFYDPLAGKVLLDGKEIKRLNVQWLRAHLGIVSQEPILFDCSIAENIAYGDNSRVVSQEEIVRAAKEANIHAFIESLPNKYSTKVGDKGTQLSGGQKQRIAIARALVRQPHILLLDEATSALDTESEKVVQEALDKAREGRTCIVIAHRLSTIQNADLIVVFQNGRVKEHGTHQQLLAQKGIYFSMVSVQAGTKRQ
Assay type: functional, cell membranes, insect cell, Membrane
`CN(C)CCCN1c2ccccc2Sc2ccc(Cl)cc21` [CHLORPROMAZINE] showed a Km of 27.4 µM.
`O=C(CCCN1CCC(O)(c2ccc(Cl)cc2)CC1)c1ccc(F)cc1` [HALOPERIDOL] gave a Km of 33 µM.
`Cc1cc2c(s1)Nc1ccccc1N=C2N1CCN(C)CC1` [OLANZAPINE] gave a Km of 8.3 µM.
